Patent US20090030086A1, “ANTIMICROBIAL AGENTS” (priority 2005, published 2009)
Values after ≈ are worked out from the molar mass of the structure shown.

Key:
[1] = tested on: S. aureus ATCC 29213; test: MIC assay; type: cell-based, Staphylococcus aureus; conditions: Staphylococcus aureus, ATCC29213; S. aureus ATCC 29213; Mueller-Hinton broth pH 7.2, aerobic, 37° C., 24 hours; read-out: MIC
Procedure, shortened: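 Broth microdilution in Mueller-Hinton broth at pH 7.2, incubated aerobically at 37 °C for 24 h and run in duplicate with medium-only and solvent/inoculum controls. The MIC was the lowest concentration whose well stayed visibly clear.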

[2] = tested on: S. aureus ATCC 29213; test: MBC assay; type: cell-based, Staphylococcus aureus
Procedure, shortened: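 Organism grown aerobically on Mueller-Hinton agar/broth (pH 7.2) for 24 hours at 37° C. After the MIC step, samples plated on non-selective agar under those conditions; lowest concentration with no visible growth taken as the MBC.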

[3] = tested on: S. aureus ATCC 29213; test: Disc diffusion assay (DDA); type: cell-based, Staphylococcus aureus; conditions: Staphylococcus aureus, ATCC29213; S. aureus ATCC 29213; unsupplemented agar; 200 μg per disc (thymoquinone 50 μg, 2,6-dimethoxy-p-benzoquinone 100 μg); read-out: DDA (diameter of zone of inhibition)
Procedure, shortened: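 Paper discs loaded with test compound (usually 200 μg/disc), solvent evaporated ≥30 min, placed on inoculated Mueller-Hinton agar pH 7.2. Incubated aerobically at 37 °C for 24 h; inhibition zone diameter measured and area calculated as π(D/2)^2.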

[4] = tested on: S. aureus ATCC 29213; test: Supplemented disc diffusion assay; type: cell-based, Staphylococcus aureus; conditions: Staphylococcus aureus, ATCC29213, 24 h, S. aureus ATCC 29213, 200 μg per disc (thymoquinone 50 μg, 2,6-dimethoxy-p-benzoquinone 100 μg)
Procedure, shortened: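 Paper discs loaded with compound (200 μg per disc for most assays) placed on inoculated Mueller-Hinton agar, pH 7.2, supplemented with 5% v/v defibrinated horse blood, 1% v/v Tween 80 and 100 mM NaCl. Aerobic incubation at 37° C for 24 h; inhibition zone diameter measured.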

[5] = tested on: P. acnes NCTC 737; test: MIC assay; type: cell-based, Propionibacterium acnes; conditions: Cutibacterium acnes, NCTC737; P. acnes NCTC 737; Wilkins-Chalgren broth pH 6.0, anaerobic, 37° C., 72 hours; read-out: MIC
Procedure, shortened: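 Broth microdilution in Wilkins-Chalgren Anaerobe broth pH 6.0, inoculated with freshly grown P. acnes NCTC 737 and incubated anaerobically at 37° C for 72 hours. MIC is the lowest compound concentration leaving the well visually clear, read on a light box. Run in duplicate with medium-only and solvent-plus-inoculum controls.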

[6] = tested on: P. acnes NCTC 737; test: MBC assay; type: cell-based, Propionibacterium acnes; conditions: P. acnes NCTC 737
Procedure, shortened: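 Cultures were kept on Wilkins-Chalgren Anaerobe agar and broth (pH 6.0), anaerobic, 37 °C, 72 h. The MBC, read as the minimum lethal concentration, came from sub-culturing post-MIC samples onto non-selective agar under those conditions and visually scoring growth.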

[7] = tested on: P. acnes NCTC 737; test: Disc diffusion assay (DDA); type: cell-based, Propionibacterium acnes; conditions: Cutibacterium acnes, NCTC737; P. acnes NCTC 737; unsupplemented agar; 200 μg per disc (2,6-dimethoxy-p-benzoquinone 100 μg); read-out: DDA (diameter of zone of inhibition)
[8] = tested on: P. acnes NCTC 737; test: Supplemented disc diffusion assay; type: cell-based, Propionibacterium acnes; conditions: P. acnes NCTC 737; for zone of inhibition at 200 µg/disc: Cutibacterium acnes, NCTC737, 72 h, 200 μg per disc (2,6-dimethoxy-p-benzoquinone 100 μg)
Procedure, shortened: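 Propionibacterium discs loaded with 200 μg compound on Wilkins-Chalgren Anaerobe agar, pH 6.0, supplemented with Tween 80 (1% v/v) and NaCl (100 mM); anaerobic incubation at 37 °C for 72 h. Inhibition zone diameter measured by automated zone sizer.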

[9] = Tween 80 at 1% v/v, read-out: DDA + lipid
[10] = sodium chloride 100 mM, read-out: DDA + salt

CC(C)(C)C1=CC(=O)C=CC1=O [2-t-butyl-p-benzoquinone]
MIC [1]: 15.6 µg/mL (≈ 95 µM)
MIC/MBC ratio [2]: 1
MBC ([2]; Staphylococcus aureus, ATCC29213, read-out: MBC): 15.6 µg/mL (≈ 95 µM)
zone of inhibition at 200 µg/disc [3]: 58.5 mm
zone of inhibition at 200 µg/disc [4, 9]: > 90 mm
zone of inhibition at 200 µg/disc ([4]; defibrinated horse blood 5% v/v, read-out: DDA + blood): 10.9 mm
zone of inhibition at 200 µg/disc [4, 10]: 54.7 mm
MIC [5]: 7.8 µg/mL (≈ 47.5 µM)
MBC ([6]; Cutibacterium acnes, NCTC737, read-out: MBC): 15.6 µg/mL (≈ 95 µM)
MIC/MBC ratio [6]: 0.5
zone of inhibition at 200 µg/disc [7]: 60.8 mm
zone of inhibition at 200 µg/disc [8, 9]: > 90 mm
zone of inhibition at 200 µg/disc [8, 10]: > 90 mm
effect of lipid on antimicrobial activity ([8]; activity increases in the presence of lipid): potentiated
